# Calls of active or inactive are those of the source.
# Experiments:
# H9c2 = test: cells; type: functional, cell-based; conditions: Rattus norvegicus, H9c2, Myocardium;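 also: confirmatory concentration-response retest of ultra-high-throughput screening hits for modulation of myocardial damage; cell death induced by hydrogen peroxide oxidative stress; compound pretreatment for 60 min then peroxide exposure for 2 h; potency is for protecting the cells against peroxide damage rather than for killing them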
# [1] = target: FAD-linked sulfhydryl oxidase ALR (Homo sapiens, UniProt P55789); test: inhibitors of human ALR sulfhydryl oxidase, dose response, biochemical, H2O2 detection, luminescence, cherry-pick (AID 493248)
# Chain of FAD-linked sulfhydryl oxidase ALR (P55789 whole entry): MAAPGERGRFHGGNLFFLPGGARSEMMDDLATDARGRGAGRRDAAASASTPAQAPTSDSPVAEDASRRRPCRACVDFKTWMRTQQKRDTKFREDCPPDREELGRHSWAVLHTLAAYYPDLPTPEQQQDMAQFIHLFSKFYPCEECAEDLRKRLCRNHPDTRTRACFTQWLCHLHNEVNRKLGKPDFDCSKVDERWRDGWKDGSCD
# cells = type: functional
# [2] = target: T1, Calpain-2 catalytic subunit (Sus scrofa, UniProt P43367); test: pig calpain II inhibitor potency, dose response, biochemical, fluorogenic peptide substrate (AID 1420); type: functional
# T1 sequence (P43367 whole entry): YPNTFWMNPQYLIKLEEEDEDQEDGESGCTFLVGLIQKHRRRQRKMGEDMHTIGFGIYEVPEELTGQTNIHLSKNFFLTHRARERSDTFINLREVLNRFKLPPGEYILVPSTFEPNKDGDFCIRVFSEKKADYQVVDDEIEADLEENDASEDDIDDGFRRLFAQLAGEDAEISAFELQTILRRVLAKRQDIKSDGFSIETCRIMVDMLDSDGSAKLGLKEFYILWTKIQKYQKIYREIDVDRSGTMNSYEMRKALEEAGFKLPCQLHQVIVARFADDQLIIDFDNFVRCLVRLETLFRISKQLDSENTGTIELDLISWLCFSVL
# [3] = target: T2, Corticotropin-releasing factor receptor 2/Corticotropin-releasing factor-binding protein (Homo sapiens, UniProt P24387+Q13324); test: activators of CRF receptor 2 with binding protein – uHTS hits, confirmation (AID 602473); type: functional; conditions: read-out: EC50_Mean
# T2 sequence (Q13324 whole entry): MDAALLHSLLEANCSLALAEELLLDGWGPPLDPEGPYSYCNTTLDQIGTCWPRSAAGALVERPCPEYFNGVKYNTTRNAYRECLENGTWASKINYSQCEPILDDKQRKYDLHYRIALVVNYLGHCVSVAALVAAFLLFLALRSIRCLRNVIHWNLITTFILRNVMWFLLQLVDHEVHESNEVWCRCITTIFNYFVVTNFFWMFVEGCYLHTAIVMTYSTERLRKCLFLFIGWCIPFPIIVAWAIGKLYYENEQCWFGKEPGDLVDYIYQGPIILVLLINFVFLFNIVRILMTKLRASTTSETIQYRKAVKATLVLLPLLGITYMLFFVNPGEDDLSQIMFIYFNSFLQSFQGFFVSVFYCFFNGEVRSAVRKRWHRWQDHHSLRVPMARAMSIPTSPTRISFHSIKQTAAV
# T2 sequence (P24387 whole entry): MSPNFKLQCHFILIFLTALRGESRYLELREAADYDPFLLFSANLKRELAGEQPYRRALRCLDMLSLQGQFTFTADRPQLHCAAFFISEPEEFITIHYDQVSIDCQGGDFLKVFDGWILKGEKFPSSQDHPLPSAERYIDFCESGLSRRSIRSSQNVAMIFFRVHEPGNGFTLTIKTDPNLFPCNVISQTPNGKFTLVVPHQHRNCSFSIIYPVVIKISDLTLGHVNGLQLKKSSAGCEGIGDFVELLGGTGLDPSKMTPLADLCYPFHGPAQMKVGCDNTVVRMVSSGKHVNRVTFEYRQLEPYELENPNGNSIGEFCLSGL
# [4] = target: T3, Rac GTPase-activating protein 1 (Homo sapiens, UniProt Q9H0H5); test: MgcRacGAP GTPase-activating activity inhibitors, confirmation, biochemical, ADP Hunter fluorescence, primary and confirmatory (AID 624330); type: functional
# T3 sequence (Q9H0H5 whole entry): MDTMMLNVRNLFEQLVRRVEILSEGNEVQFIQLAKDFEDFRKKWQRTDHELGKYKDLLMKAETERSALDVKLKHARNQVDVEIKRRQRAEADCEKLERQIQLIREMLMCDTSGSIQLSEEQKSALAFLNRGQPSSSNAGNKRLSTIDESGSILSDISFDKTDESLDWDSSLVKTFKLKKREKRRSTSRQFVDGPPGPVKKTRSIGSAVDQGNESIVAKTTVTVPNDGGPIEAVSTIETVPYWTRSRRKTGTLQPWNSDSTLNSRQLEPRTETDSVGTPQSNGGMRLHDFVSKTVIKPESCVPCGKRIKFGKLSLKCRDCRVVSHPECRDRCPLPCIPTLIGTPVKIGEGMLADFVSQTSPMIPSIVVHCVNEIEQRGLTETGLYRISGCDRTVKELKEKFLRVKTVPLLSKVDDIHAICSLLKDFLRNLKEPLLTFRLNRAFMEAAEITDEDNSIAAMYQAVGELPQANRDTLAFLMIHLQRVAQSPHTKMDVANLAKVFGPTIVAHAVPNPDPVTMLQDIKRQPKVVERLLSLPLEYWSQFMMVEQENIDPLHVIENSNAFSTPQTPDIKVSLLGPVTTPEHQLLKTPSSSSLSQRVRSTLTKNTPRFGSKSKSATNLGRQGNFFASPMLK
# Large T antigen = Large T antigen (Simian virus 40, UniProt P03070); type: functional, Betapolyomavirus macacae;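 also: Confirmatory-stage PubChem screen for compounds that inhibit SV40 T antigen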
# Chain of Large T antigen (P03070 whole entry): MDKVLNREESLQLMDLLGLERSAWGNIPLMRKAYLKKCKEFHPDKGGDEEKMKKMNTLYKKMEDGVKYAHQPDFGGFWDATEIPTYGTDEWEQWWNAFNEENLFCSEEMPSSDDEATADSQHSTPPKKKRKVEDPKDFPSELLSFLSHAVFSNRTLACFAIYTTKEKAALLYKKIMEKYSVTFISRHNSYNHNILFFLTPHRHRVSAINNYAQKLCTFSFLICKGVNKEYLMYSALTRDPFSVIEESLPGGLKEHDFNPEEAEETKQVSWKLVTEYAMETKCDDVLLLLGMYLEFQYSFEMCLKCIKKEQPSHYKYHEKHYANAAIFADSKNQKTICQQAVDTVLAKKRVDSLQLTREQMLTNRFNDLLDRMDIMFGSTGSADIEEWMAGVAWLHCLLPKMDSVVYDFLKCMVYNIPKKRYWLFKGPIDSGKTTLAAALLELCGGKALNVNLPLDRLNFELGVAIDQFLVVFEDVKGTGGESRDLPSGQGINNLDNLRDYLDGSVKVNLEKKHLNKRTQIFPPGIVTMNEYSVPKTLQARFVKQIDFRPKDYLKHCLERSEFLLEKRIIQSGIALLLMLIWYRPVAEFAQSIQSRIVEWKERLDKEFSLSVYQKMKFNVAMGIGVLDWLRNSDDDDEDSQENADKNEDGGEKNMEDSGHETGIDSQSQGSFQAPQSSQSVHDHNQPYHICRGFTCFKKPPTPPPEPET
# Leucine aminopeptidase = target: T4, Leucine aminopeptidase (Plasmodium falciparum 3D7, UniProt Q8IL11); test: P. falciparum M17LAP inhibitors, primary screen, biochemical, fluorogenic H-Leu-NHMec substrate, 1536-well (AID 1619); type: functional
# T4 sequence (Q8IL11 whole entry): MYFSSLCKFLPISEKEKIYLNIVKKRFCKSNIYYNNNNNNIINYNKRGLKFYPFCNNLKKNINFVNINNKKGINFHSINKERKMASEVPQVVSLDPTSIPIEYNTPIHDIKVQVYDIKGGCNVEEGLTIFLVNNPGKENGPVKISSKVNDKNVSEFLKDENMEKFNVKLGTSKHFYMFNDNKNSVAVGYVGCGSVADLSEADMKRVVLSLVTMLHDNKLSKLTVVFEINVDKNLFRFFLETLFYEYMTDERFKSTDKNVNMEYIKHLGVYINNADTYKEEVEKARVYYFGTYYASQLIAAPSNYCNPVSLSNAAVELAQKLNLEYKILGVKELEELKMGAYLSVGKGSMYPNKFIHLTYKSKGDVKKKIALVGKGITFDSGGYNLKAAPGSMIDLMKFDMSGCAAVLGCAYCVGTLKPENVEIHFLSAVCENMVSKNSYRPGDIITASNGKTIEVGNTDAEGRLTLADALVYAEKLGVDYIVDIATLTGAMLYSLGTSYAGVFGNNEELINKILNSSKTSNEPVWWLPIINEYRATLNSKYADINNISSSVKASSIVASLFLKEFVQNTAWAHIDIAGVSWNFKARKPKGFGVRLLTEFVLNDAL
# [5] = target: Induced myeloid leukemia cell differentiation protein Mcl-1 (Homo sapiens, UniProt Q07820); type: functional
# Chain of Induced myeloid leukemia cell differentiation protein Mcl-1 (Q07820 whole entry): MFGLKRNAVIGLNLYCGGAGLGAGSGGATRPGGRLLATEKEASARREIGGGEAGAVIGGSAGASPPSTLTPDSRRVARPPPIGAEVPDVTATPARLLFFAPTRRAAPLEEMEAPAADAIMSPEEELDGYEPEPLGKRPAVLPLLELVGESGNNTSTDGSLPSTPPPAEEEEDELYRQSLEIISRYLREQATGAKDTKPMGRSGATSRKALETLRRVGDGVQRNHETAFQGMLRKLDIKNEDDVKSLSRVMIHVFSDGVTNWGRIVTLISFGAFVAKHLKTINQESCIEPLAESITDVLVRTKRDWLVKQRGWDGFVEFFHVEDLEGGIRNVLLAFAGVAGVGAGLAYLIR
# Genome polyprotein = Genome polyprotein (dengue virus type 2, UniProt P29990); test: Dengue-2 NS5 methyltransferase inhibitors, primary screen, biochemical, confirmation dose response (AID 588689); type: functional
# Chain of Genome polyprotein (P29990 2492-3391 limits assumed): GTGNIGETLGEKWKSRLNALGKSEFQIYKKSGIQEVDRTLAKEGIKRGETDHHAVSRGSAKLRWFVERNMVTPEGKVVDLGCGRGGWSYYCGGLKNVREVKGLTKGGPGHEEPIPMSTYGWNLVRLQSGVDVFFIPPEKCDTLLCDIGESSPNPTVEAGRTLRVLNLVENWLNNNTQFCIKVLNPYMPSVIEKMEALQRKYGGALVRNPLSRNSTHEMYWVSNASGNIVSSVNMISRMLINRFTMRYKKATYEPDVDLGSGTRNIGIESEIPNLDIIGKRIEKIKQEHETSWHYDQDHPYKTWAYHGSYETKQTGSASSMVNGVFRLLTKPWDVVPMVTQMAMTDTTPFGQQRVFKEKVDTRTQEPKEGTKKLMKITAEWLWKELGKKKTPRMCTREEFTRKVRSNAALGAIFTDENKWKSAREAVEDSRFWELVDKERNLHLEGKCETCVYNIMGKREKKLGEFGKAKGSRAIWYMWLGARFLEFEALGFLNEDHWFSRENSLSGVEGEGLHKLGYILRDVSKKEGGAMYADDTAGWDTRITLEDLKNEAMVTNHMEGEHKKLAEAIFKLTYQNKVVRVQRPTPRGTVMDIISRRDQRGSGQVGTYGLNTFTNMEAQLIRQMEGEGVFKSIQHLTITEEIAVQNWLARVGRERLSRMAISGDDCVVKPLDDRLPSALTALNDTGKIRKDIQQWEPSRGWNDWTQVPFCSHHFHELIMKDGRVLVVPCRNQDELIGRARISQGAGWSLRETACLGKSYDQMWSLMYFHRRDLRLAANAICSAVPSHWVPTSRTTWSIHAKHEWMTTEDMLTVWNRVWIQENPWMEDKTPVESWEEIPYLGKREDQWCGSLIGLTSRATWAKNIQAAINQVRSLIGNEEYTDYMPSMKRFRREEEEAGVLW
smiles,measurement,setting,value
Cn1c(=O)n(CCc2ccccc2)c(=O)c2c1nc1n2CCCN1Cc1ccccc1,IC50,H9c2,> 79 µM (inactive)
CC(=O)N1CCN=C1SCc1ccccc1F,AC50,[1],13.9 µM (active)
COC(=O)c1ccc(COC(=O)c2ccccn2)cc1,IC50,cells,26.6 µM (active)
O=C(Nc1ccc(Oc2ccccc2)cc1)C1CCCN(c2ncccn2)C1 (centres undefined),IC50,[2],14.7 µM (not active)
same,EC50,[3],> 53 µM (inactive)
O=[N+]([O-])c1c(O)nc(/C=C\c2ccc(O)cc2)nc1O,AC50,[1],4.4 µM (active)
same,IC50,[4],50.6 µM (active)
O=C(Nc1cccc(C(=O)O)c1)/C(=C\C=C\c1ccccc1)NC(=O)c1ccccc1,IC50,[2],13.6 µM (not active)
Cc1ccc(NC(=O)CN(C)C(=O)CCCN2C(=O)c3ccccc3C2=O)cc1,IC50,[2],10.3 µM (not active)
O=C(CC1SC(=O)N(c2ccccc2)C1=O)Nc1cccc2ccccc12 (centres undefined),IC50,Large T antigen,70.4 µM (active)
Cc1cc(C)c(NC(=O)Cn2cc3c(n2)CCCC3)c(C)c1,IC50,[2],20.5 µM (not active)
Cc1ccc(C(=O)Nc2nc(-c3ccc([N+](=O)[O-])cc3)cs2)o1,AC50,[1],0.675 µM (active)
COc1ccccc1N1CCN(C(=O)c2ccc(CSc3ccccc3)cc2)CC1,IC50,[2],8.99 µM (not active)
O=C(NCC(c1cccnc1)N1CCN(c2ccccc2)CC1)OCc1ccccc1 (centres undefined),AC50,[1],6.15 µM (active)
CC1=NNC(=O)C1CC(=O)N/N=C(\C)c1cccs1 (centres undefined),IC50,Leucine aminopeptidase,3.56 µM (active)
c1csc(-c2nc3ccccn3c2NC2CCCCC2)c1,AC50,[1],0.678 µM (active)
O=C1NC(Cc2ccc(O)cc2)c2nc3ccc(F)cc3c(=O)n2-c2cc3ccccc3cc21 (centres undefined),IC50,H9c2,> 79 µM (inactive)
CCOC(=O)c1ccc(S(=O)(=O)Nc2nc3cc(S(=O)(=O)NC4=NCCCCC4)ccc3s2)cc1,IC50,Large T antigen,33.4 µM (active)
same,IC50,[4],107 µM (active)
CCS(=O)(=O)N1Cc2ccccc2CC1C(=O)N1CCN(c2ccccc2)CC1 (centres undefined),AC50,[1],12.1 µM (active)
COc1ccc(CCNC(=O)c2cc(C(=O)c3cc(C)ccc3O)cn(CCc3ccc(OC)cc3)c2=O)cc1,IC50,H9c2,> 79 µM (inactive)
C/C(=N\Nc1cccc(C(=O)O)c1)c1ccc2c(c1)Nc1ccccc1S2,IC50,[5],0.431 µM (active)
same,IC50,Genome polyprotein,> 100 µM (active)
Cc1cc(O)nc(SCC(=O)Nc2ccccc2C#N)c1C#N,IC50,Leucine aminopeptidase,13.9 µM (active)

# — ChEMBL document CHEMBL1201862, “PubChem BioAssay data set” (2004)
